The values below are quoted from earlier work in patent publication US20210251906A1, “[…]-RELEASE FORMULATIONS” (Mylan Inc., priority 2018, published 2021).

The conditions of data set [1]: in water and in basic and acidic aqueous solutions.
The conditions of data set [2]: in vivo.

SMILES strings stand for the structures.

On to `CC(C)C[C@H](CN)CC(=O)O` [Pregabalin, (S)-3-(aminomethyl)-5-methylhexanoic acid], for which the Solubility result in data set [1] is listed as “freely soluble”. Moreover, in data set [2], the Elimination half-life result was “about 6.3 hours”.
